Data as given in ChEMBL document CHEMBL1152558, “A critical electrostatic interaction mediates inhibitor recognition by human asparagine synthetase” (Bioorg Med Chem, 2009).
Activity calls are given as the source filed them. No cut-off for these calls is given here.

Key:
[1] = target: T1, Asparagine synthetase [glutamine-hydrolyzing] (Homo sapiens, UniProt P08243); experiment: Inhibition of human recombinant ASNS expressed in Sf9 insect cells
T1 sequence (P08243 whole entry): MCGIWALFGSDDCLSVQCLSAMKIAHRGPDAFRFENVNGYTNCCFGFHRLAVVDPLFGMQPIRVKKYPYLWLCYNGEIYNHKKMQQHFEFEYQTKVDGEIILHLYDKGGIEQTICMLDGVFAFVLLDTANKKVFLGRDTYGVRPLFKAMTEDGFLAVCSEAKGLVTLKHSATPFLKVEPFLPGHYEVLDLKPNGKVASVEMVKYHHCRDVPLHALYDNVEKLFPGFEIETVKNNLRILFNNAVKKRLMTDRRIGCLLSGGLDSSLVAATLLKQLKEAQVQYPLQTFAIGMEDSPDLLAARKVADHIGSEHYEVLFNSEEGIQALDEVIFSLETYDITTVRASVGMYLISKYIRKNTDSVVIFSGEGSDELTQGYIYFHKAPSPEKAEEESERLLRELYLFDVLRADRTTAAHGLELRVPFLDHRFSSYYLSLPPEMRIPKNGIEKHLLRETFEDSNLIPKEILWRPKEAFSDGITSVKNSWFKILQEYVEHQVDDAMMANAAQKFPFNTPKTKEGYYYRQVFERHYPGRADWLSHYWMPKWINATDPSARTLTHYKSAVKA

[2] = target: T1, Asparagine synthetase [glutamine-hydrolyzing]; experiment: Inhibition of human recombinant ASNS expressed in Sf9 insect cells assessed as overall inhibition constant
[3] = target: T2, Asparagine synthetase [glutamine-hydrolyzing] (Homo sapiens) (UniProt P08243); experiment: Inhibition of human recombinant ASNS expressed in Sf9 insect cells assessed as inorganic phosphate production in glutamine-dependent asparagine synthesis using continuous assay
T2 sequence (whole entry): T1 sequence (P08243 whole entry)

[4] = target: T2, Asparagine synthetase [glutamine-hydrolyzing] (Homo sapiens); experiment: Inhibition of human recombinant ASNS expressed in Sf9 insect cells assessed as inorganic phosphate production in ammonia-dependent asparagine synthesis using continuous assay

Structure (SMILES) | Ki [1] [µM] | Ki [2] [µM] | Activity [3] | Activity [4]
C[S+]([O-])(C[C@H](N)C(=O)O)=NP(=O)(O)OC[C@H]1O[C@@H](n2cnc3c(N)ncnc32)[C@H](O)[C@@H]1O (some centres undefined) | 20 | 10 |  | 
C[S+]([O-])(CC(N)C(=O)O)=NS(=O)(=O)NC[C@H]1O[C@@H](n2cnc3c(N)ncnc32)[C@H](O)[C@@H]1O (mixture of isomers) |  |  | inactive | inactive
